According to patent US20260076973A1 (priority 2023, published 2026):
Structures can show the parent of a compound that is named as a salt. Where two headings read alike, the source gives them in different places. Where a SMILES comes first, the peptide text is derived from it.

Columns and labels:
SARS-CoV-2 (WA1) = experiment: microbe, parasite or virus in culture; format: cell-based; conditions: for antiviral effect of positive controls in the CPE assay: SARS-CoV-2 CPE assay
VeroE6 cells = experiment: Cytotoxicity counter screen in Vero E6 cells (Cell Titer-Glo); conditions: read-out: Cytotoxicity CC50; reference compounds, Vero E6 cells, 72 hours
[1] = as above; conditions: African green monkey
229E virus = experiment: 229E coronavirus infection assay in Huh7.5 cells; format: cell-based; conditions: read-out: 229E IC50
OC43 virus = experiment: OC43 coronavirus infection assay in Huh7.5 cells; format: cell-based; conditions: read-out: OC43 IC50
[2] = test system: SARS CoV-2 nanoluciferase reporter virus (NLRV); experiment: microbe, parasite or virus in culture; format: cell-based; conditions: Severe acute respiratory syndrome coronavirus 2, A549-ACE2, 72 h
[3] = Severe acute respiratory syndrome coronavirus 2, Vero C1008, 72 h, reference compounds, SARS-CoV-2 (WA1) CPE assay, Round 2, Vero E6, 72 hours, read-out: Antiviral IC50
[4] = Severe acute respiratory syndrome coronavirus 2, Vero C1008
[5] = Betacoronavirus 1, OC43, Huh7.5, 72 h
[6] = Severe acute respiratory syndrome coronavirus 2, Vero C1008, VIRADEM compounds, SARS-CoV-2(WA1) CPE assay, Round 2, concentration range 1000-0.05 nM, Vero E6, read-out: IC50
[7] = VIRADEM compounds, SARS-CoV-2(WA1) CPE assay, Round 2, concentration range 1000-0.05 nM, Vero E6, read-out: IC50

Question: For `CC(C)C[C@H](NC(=O)OCc1ccccc1)C(=O)N[C@@H](CC(C)C)C(=O)N[C@@H](Cc1ccc(O)cc1)C(=O)CF` [Calpain Inhibitor IV, reference compound] (HELM PEPTIDE1{[O=C(OCc1ccccc1)[*:2]].L.L.Y.[FC[*:1]]}$$$$V2.0), which “antiviral effect of positive controls in the CPE assay” value (SARS-CoV-2 (WA1)) is on record?
Answer: dose dependent antiviral effect

Question: And the IC50 (SARS-CoV-2 (WA1); reference compounds, SARS-CoV-2 (WA1) CPE assay, Round 2, Vero E6, 72 hours, read-out: Antiviral IC50)?
Answer: 240 nM

Question: And the CC50 (VeroE6 cells)?
Answer: > 7170 nM

Question: Which “antiviral effect of positive controls in the CPE assay” value (SARS-CoV-2 (WA1)) does the source give for `CCN(CC)CCCC(C)Nc1ccnc2cc(Cl)ccc12` (stereo not shown) [Chloroquine, reference compound] here?
Answer: dose dependent antiviral effect

Question: And the IC50 (SARS-CoV-2 (WA1); [3])?
Answer: 4030 nM

Question: And the CC50 at 72 h [1]?
Answer: > 30000 nM

Question: With `CCN(CCO)CCCC(C)Nc1ccnc2cc(Cl)ccc12` (stereo not shown) [Hydroxychloroquine, reference compound] as the compound, how does the IC50 (SARS-CoV-2 (WA1); [3]) read?
Answer: 2100 nM

Question: What about the CC50 at 72 h ([1]; Vero E6 cells) of the same compound?
Answer: > 30000 nM

Question: With `CCC(CC)COC(=O)[C@H](C)N[P@](=O)(OC[C@H]1O[C@@](C#N)(c2ccc3c(N)ncnn23)[C@H](O)[C@@H]1O)Oc1ccccc1` [Remdesivir, reference compound] as the compound, how does the IC50 (SARS-CoV-2 (WA1); [4]) read?
Answer: 7000 to 10000 nM

Question: What about the IC50 (SARS-CoV-2 (WA1); Severe acute respiratory syndrome coronavirus 2, Vero C1008, 72 h, read-out: Antiviral IC50) of the same compound?
Answer: 10800 nM

Question: What about the “Selectivity Index (CC50/IC50)” value (SARS-CoV-2 (WA1); reference compounds, Round 2) of the same compound?
Answer: >2.8

Question: And the IC50 (229E virus; Huh7.5, 48 h)?
Answer: 13 nM

Question: And the IC50 (OC43 virus; [5])?
Answer: 9.7 nM

Question: What about the CC50 at 72 h [1] of the same compound?
Answer: > 30000 nM

Question: With `Cc1ccc(Nc2nc(Nc3ccc(C)c(C)c3)nc(N3CCOCC3)n2)cc1` [VIRADEM-11141] as the compound, how does the IC50 (SARS-CoV-2 (WA1); [4]) read?
Answer: 120 nM

Question: And the IC50 [2]?
Answer: 97 nM

Question: What about the IC90 [2] of the same compound?
Answer: 118 nM

Question: And the IC50 (229E virus; Huh7.5, 48 h)?
Answer: 260 nM

Question: What about the IC50 (OC43 virus; [5]) of the same compound?
Answer: 1650 nM

Question: What does the source list for `CC(=O)Nc1ccc(Nc2nc(Nc3ccc(Cl)cc3)nc(N3CCOCC3)n2)cc1` [VIRADEM-11847, N-{4-[4-(4-Chlorophenylamino)-6-morpholin-4-yl-[1,3,5]triazin-2-ylamino]-phenyl}-acetamide]?
Answer: IC50 (SARS-CoV-2 (WA1); [6]): 20 nM; IC50 [2]: 32 nM; IC90 [2]: 41 nM; IC50 (229E virus; 48 h, Huh7.5 cells, fixed 2 days after infection): 138 nM; IC50 (OC43 virus; Betacoronavirus 1, OC43, 72 h, Huh7.5 cells, fixed 3 days after infection): 992 nM

Question: Which IC50 [2] does the source give for `CC(=O)Nc1ccc(Nc2nc(Nc3ccc(C)c(C)c3)nc(N3CCOCC3)n2)cc1` [VIRADEM-11918, N-{4-[4-(3,4-Dimethylphenylamino)-6-morpholin-4-yl-[1,3,5]triazin-2-ylamino]phenyl}-acetamide] here?
Answer: 19 nM

Question: What about the IC90 [2] of the same compound?
Answer: 29 nM

Question: With `Cc1ccc(Nc2nc(N3CCOCC3)nc(N(C)c3ccccc3)n2)cc1C` [VIRADEM-15168, N-(3,4-Dimethylphenyl)-N^1-methyl-6-morpholin-4-yl-N^1-phenyl-[1,3,5]triazine-2,4-diamine] as the compound, how does the IC50 (SARS-CoV-2 (WA1); [7]) read?
Answer: 180 nM

Question: With `c1ccc(CN2CCN(c3nc(N4CCOCC4)nc(N4CCOCC4)n3)CC2)cc1` [VIRADEM-15199, 2-(4-Benzylpiperazin-1-yl)-4,6-dimorpholin-4-yl-[1,3,5]triazine] as the compound, how does the IC50 (SARS-CoV-2 (WA1); [6]) read?
Answer: > 1000 nM

Question: Which IC50 (SARS-CoV-2 (WA1); [6]) does the source give for `c1cc2c(cc1CNc1nc(N3CCOCC3)nc(N3CCOCC3)n1)OCO2` [VIRADEM-15201, Benzo[1,3]dioxol-5-ylmethyl-(4,6-dimorpholin-4-yl-[1,3,5]triazin-2-yl)-amine] here?
Answer: > 1000 nM

Question: With `c1ccc(CNc2nc(N3CCOCC3)nc(N3CCOCC3)n2)cc1` [VIRADEM-15209, Benzyl-(4,6-dimorpholin-4-yl-[1,3,5]triazin-2-yl)-amine] as the compound, how does the IC50 (SARS-CoV-2 (WA1); [6]) read?
Answer: > 1000 nM

Question: For `COc1ccc(Nc2nc(N3CCOCC3)nc(N3CCC(C)CC3)n2)cc1` [VIRADEM-15220, (4-Methoxyphenyl)-[4-(4-methylpiperidin-1-yl)-6-morpholin-4-yl-[1,3,5]triazin-2-yl]amine], which IC50 (SARS-CoV-2 (WA1); [6]) is on record?
Answer: > 1000 nM

Question: With `Cc1ccc(Nc2nc(N3CCCCCC3)nc(N3CCOCC3)n2)cc1` [VIRADEM-15229, (4-Azepan-1-yl-6-morpholin-4-yl-[1,3,5]triazin-2-yl)-p-tolyl-amine] as the compound, how does the IC50 (SARS-CoV-2 (WA1); [6]) read?
Answer: 850 nM

Question: For `c1ccc(CCNc2nc(N3CCOCC3)nc(N3CCOCC3)n2)cc1` [VIRADEM-15230, (4,6-Dimorpholin-4-yl-[1,3,5]triazin-2-yl)-phenetylamine], which IC50 (SARS-CoV-2 (WA1); [7]) is on record?
Answer: 460 nM

Question: With `Cc1ccc(Nc2nc(N3CCOCC3)nc(N3CCC(C)CC3)n2)cc1C` [VIRADEM-15231, (3,4-Dimethylphenyl)-[4-(4-methylpiperidin-1-yl)-6-morpholin-4-yl-[1,3,5]triazin-2-yl]-amine] as the compound, how does the IC50 (SARS-CoV-2 (WA1); [6]) read?
Answer: 350 nM

Question: With `c1coc(CNc2nc(N3CCOCC3)nc(N3CCOCC3)n2)c1` [VIRADEM-15234, (4,6-Dimorpholin-4-yl-[1,3,5]triazin-2-yl)-furan-2-ylmethylamine] as the compound, how does the IC50 (SARS-CoV-2 (WA1); [6]) read?
Answer: > 1000 nM

Question: For `COc1ccc(CCNc2nc(N3CCOCC3)nc(N3CCOCC3)n2)cc1OC` [VIRADEM-15243, [2-(3,4-Dimethoxyphenyl)-ethyl]-(4,6-dimorpholin-4-yl-[1,3,5]triazin-2-yl)-amine], which IC50 (SARS-CoV-2 (WA1); [6]) is on record?
Answer: > 1000 nM

Question: For `CCc1cccc(Nc2nc(N3CCOCC3)nc(N3CCOCC3)n2)c1` [VIRADEM-15248, (4,6-Dimorpholin-4-yl-[1,3,5]triazin-2-yl)-(3-ethylphenyl)-amine], which IC50 (SARS-CoV-2 (WA1); [6]) is on record?
Answer: > 1000 nM

Question: Which IC50 (SARS-CoV-2 (WA1); [7]) does the source give for `COc1ccc(Nc2nc(Nc3cccc4ccccc34)nc(N3CCOCC3)n2)cc1` [VIRADEM-15262, N-(4-Methoxyphenyl)-6-morpholin-4-yl-N^1-naphthalen-[1,3,5]triazine-2,4-diamine] here?
Answer: 440 nM

Question: Which IC50 (SARS-CoV-2 (WA1); [6]) does the source give for `COc1ccc(Nc2nc(N3CCOCC3)nc(N3CCCc4ccccc43)n2)cc1` [VIRADEM-15272, [4-(3,4-Dihydro-2H-quinolin-1-yl)-6-morpholin-4-yl-[1,3,5]triazin-2-yl]-(4-methoxyphenyl)-amine] here?
Answer: > 1000 nM

Question: Which IC50 (SARS-CoV-2 (WA1); [7]) does the source give for `Cc1ccc(Nc2nc(N3CCOCC3)nc(N3CCCc4ccccc43)n2)cc1C` [VIRADEM-15278, [4-(3,4-Dihydro-2-H-quinolin-1-yl)-6-morpholin-4-yl-[1,3,5]triazin-2-yl]-(3,4-dimethylphenyl)-amine] here?
Answer: 120 nM

Question: With `Cc1ccc(Nc2nc(Nc3cccc4ccccc34)nc(N3CCOCC3)n2)cc1` [VIRADEM-15279, 6-Morpholin-4-yl-N-naphtalen-1-yl-N^1-p-tolyl-[1,3,5]triazine-2,4-diamine] as the compound, how does the IC50 (SARS-CoV-2 (WA1); [7]) read?
Answer: 80 nM

Question: For `Cc1ccc(S(=O)(=O)NNc2nc(N3CCOCC3)nc(N3CCOCC3)n2)cc1` [VIRADEM-15295, N-(4,6-Dimorpholin-4-yl-[1,3,5]triazin-2-yl)-N^1-tozylhydrazin], which IC50 (SARS-CoV-2 (WA1); [7]) is on record?
Answer: > 1000 nM

Question: With `c1ccc2c(c1)CCN2c1nc(N2CCOCC2)nc(N2CCOCC2)n1` [VIRADEM-15355, 1-(4,6-Dimorpholin-4-yl-[1,3,5]triazin-2-yl)-2,3-dihydro-1H-indole] as the compound, how does the IC50 (SARS-CoV-2 (WA1); [6]) read?
Answer: > 1000 nM

Question: Which IC50 (SARS-CoV-2 (WA1); [6]) does the source give for `COc1ccc(Nc2nc(Nc3ccc(C(N)=O)cc3)nc(N3CCOCC3)n2)cc1` [VIRADEM-15356, 4-[4-(4-Methoxyphenylamino)-6-morpholin-4-yl-[1,3,5]triazin-2-ylamino]-benzamide] here?
Answer: 120 nM

Question: Which IC50 (SARS-CoV-2 (WA1); [6]) does the source give for `NC(=O)C1CCN(c2nc(N3CCOCC3)nc(N3CCOCC3)n2)CC1` [VIRADEM-15361, 1-(4,6-Dimorpholin-4-yl-[1,3,5]triazin-2-yl)-piperidine-4-carboxylic acid amide] here?
Answer: > 1000 nM

Question: With `C1CCCN(c2nc(N3CCOCC3)nc(N3CCOCC3)n2)CC1` [VIRADEM-16523, 1-(4,6-Dimorpholin-4-yl-[1,3,5]triazin-2-yl)-azepane] as the compound, how does the IC50 (SARS-CoV-2 (WA1); [6]) read?
Answer: > 1000 nM

Question: With `COc1ccc(Nc2nc(Nc3cccc(C)c3)nc(N3CCOCC3)n2)cc1` [hydrochloride] as the compound, how does the IC50 (SARS-CoV-2 (WA1); [4]) read?
Answer: 230 nM

Question: Which IC50 (SARS-CoV-2 (WA1); [7]) does the source give for “N-(3-Chlorophenyl)-N^1-phenyl)-6-pyrrolidin-1-yl-[1,3,5]triazine-2,4-diamine hydrochloride [VIRADEM-12312]” here?
Answer: > 1000 nM

Question: For “N-(3-Fluorophenyl)-6-pyrrolidin-1-yl-1,3,5]triazine-2,4-diamine hydrochloride [VIRADEM-12180]”, which IC50 (SARS-CoV-2 (WA1); [7]) is on record?
Answer: > 1000 nM
